Experiments:
[1] = test system: T.b. brucei, T.b. gambiense and T.b. rhodesiense; test: Procyclic trypomastigote (TRY) in-vitro screen; assay type: cell-based; note: key: - no/poor activity,; + fair/moderate activity,; ++ good/excellent activity
Protocol: (§1) Primary screening for new trypanocides has made extensive use of rodent systems, in which host survival time is a simple indicator of drug activity. In-vitro screens have used a variety of trypomastigote types (see Table 3, below). […] Most early in-vitro screens employed a short test in which bloodstream trypomastigotes were isolated from an infected rodent and maintained for up to 24 h in a simple drug-containing media. Two significant modifications of this technique include maintaining isolated bloodstream trypomastigotes in drug-containing media for 3-4 hours at 37° C in micro-titre plates and their subsequent viability assessed by the uptake of radiolabelled precursors or motility and infectivity to mice.
(§2) In-vitro and in-vivo models were used to test activities of a selection of many compounds. Those activities are summarized in Tables 1-3, showing variation between systems and species. Activities measured in the MP mo and HM mo models have shown the best correlation with results obtained in hamster and mouse models.

[2] = test system: T. cruzi; test: T. cruzi epimastigote (EPI) in-vitro screen; assay type: cell-based
Protocol: (§5) In-vitro chemotherapy screens have for many years used models involving three stages of the T. cruzi life cycle: • (1) Epimastigote. Dividing populations are easily cultivated in a range of defined and semi-defined media, but are equivalent to a vector stage of the life cycle. • (2) Trypomastigote. These are isolated from a rodent host and can be maintained as a non-dividing population for 24-48 h in media. • (3) Amastigote. Dividing populations can be cultivated in muscle cells, fibroblasts and macrophages, following infection with trypomastigotes. After the initial infection, there is normally a period of 4-5 days during which the amastigotes divide before transforming, via the epimastigote stage, back to trypomastigotes which escape from the cell. Drug activity is measured during this 4-5 day period. A dividing host cell population, low infection rate, and the presence of trypomastigotes in the overlay can complicate the interpretation of results.

[3] = test system: L major/L mexicana; test: Leishmania promastigote (PRO) in-vitro screen; assay type: cell-based; details: Lm.
From the text: (§3) Following initial infection, the amastigote is the only form present in the mammalian host, surviving and dividing in various macrophage populations. Differences between the promastigote and amastigote in form and habitat are not matched by known biochemical dissimilarities. However, the drug susceptibility of the cultured promastigote, used in many early chemotherapy screens, contrasts markedly with that of the amastigote (see Table 1, below), most importantly to the clinically used pentavalent antimonials - sodium stibogluconate (Pentostam) and meglumine antimoniate (Glucantime).
(§4) Amastigotes of Leishmania can be cultivated in a wide range of mammalian cells, some of which may be used in in-vitro screens. These include (1) a Sticker dog sarcoma (fibroblast) cell line, (2) transformed rodent macrophage cell lines, (3) primary isolated mouse peritoneal macrophages (MP mo), and (4) human monocyte-derived macrophages (HM mo). The methods are similar for all models. Amastigote or promastigote infected cells are maintained in a medium containing the drug for 4-7 days, at 37 C for L. donovani and 33-35 C for L. major and L. mexicana. Drug activity is then assessed by counting (I) the number of infected host cells and/or (II) the number of amastigotes/100 host cells.
as §2

[4] = test system: L donovani; test: Leishmania promastigote (PRO) in-vitro screen; assay type: cell-based; details: Ld.
From the text: as §3, §4, §2

[5] = test system: T.b. brucei, T.b. gambiense and T.b. rhodesiense; test: Cultivated bloodstream trypomastigote (TRY) in-vitro screen; assay type: cell-based
From the text: Culture systems developed in the last decade have used mammalian cell feeder layers to support the growth of dividing populations of bloodstream trypomastigotes of T. brucei spp. Some of these systems have been used in chemotherapy studies, including; (1) bovine fibroblast culture - T. brucei models to test some standard and experimental compounds, (2) murine bone marrow culture - T.b. gambiense model to screen inosine analogues and platinum and hypolipidemic compounds, and (3) Microtus embryonic fibroblast culture (MEF) - T.b. rhodesiense model to test standard and experimental drugs. These systems give a good indication of in-vivo activity (see Table 3). They measure activity against dividing cells rather than specific macromolecular synthesis pathways and can be readily established in micro-titre plates. The MEF and bone marrow cell feeder layers can be used to grow a range of strains of T. brucei spp., offering the possibility of examining variations in drug susceptibility and resistance between strains. The presence of a feeder layer, however, limits the opportunities for the automation of these systems.
as §2

[6] = test system: L donovani; test: Amastigote-promastigote (AM-PRO) transformation, in-vitro; assay type: cell-based; details: Ld.
[7] = test system: L major/L mexicana; test: Amastigotes (AM) in cell lines, in-vitro; assay type: cell-based; details: Lm., Amastigote; note: key: - no/poor activity,; + fair/moderate activity,; ++ good/excellent activity
From the text: as §4, §2

[8] = test system: L donovani; test: Amastigotes (AM) in cell lines, in-vitro; assay type: cell-based; details: Ld., Amastigote; note: key: - no/poor activity,; + fair/moderate activity,; ++ good/excellent activity
From the text: as §4, §2

[9] = test system: L major/L mexicana; test: Leishmania mouse/hamster models, in-vivo; details: Lm. Note: key: - no/poor activity,; + fair/moderate activity,; ++ good/excellent activity.
From the text: as §2

[10] = test system: L donovani; test: Leishmania mouse/hamster models, in-vivo; details: Ld. Note: key: - no/poor activity,; + fair/moderate activity,; ++ good/excellent activity.
From the text: as §2

[11] = test system: L major/L mexicana; test: Amastigote-promastigote (AM-PRO) transformation, in-vitro; assay type: cell-based; details: Lm.
[12] = test system: T.b. brucei, T.b. gambiense and T.b. rhodesiense; test: African trypanosomiasis mouse model, in-vivo
Protocol: as §1, §2

[13] = test system: L major/L mexicana; test: Amastigotes (AM) in mouse or human macrophages (mos), in-vitro; assay type: cell-based; details: Lm., Amastigote
From the text: as §4, §2

[14] = test system: L donovani; test: as above; assay type: cell-based; details: Ld., Amastigote
From the text: as §4, §2

[15] = test system: T. cruzi; test: T. cruzi mouse model, in-vivo
From the text: as §2

[16] = test system: T. cruzi; test: T. cruzi intracellular amastigote (AM) in-vitro screen; assay type: cell-based
Protocol: Dividing populations can be cultivated in muscle cells, fibroblasts and macrophages, following infection with trypomastigotes. After the initial infection, there is normally a period of 4-5 days during which the amastigotes divide before transforming, via the epimastigote stage, back to trypomastigotes which escape from the cell. Drug activity is measured during this 4-5 day period. A dividing host cell population, low infection rate, and the presence of trypomastigotes in the overlay can complicate the interpretation of results.
Intracellular amastigote models can use a range of muscle (skeletal and cardiac) and fibroblast (e.g. HeLa, HePa) cell lines, macrophages, and chick embryo cells. […] To overcome the problems of overgrowth of the monolayer and a low percentage of infected cells, often associated with the use of cell lines, irradiated rat L6 myoblasts are used.

[17] = test system: T. cruzi; test: T. cruzi trypomastigote (TRY) in-vitro screen; assay type: cell-based
Protocol: as §5

[18] = test system: T.b. brucei, T.b. gambiense and T.b. rhodesiense; test: Isolated bloodstream trypomastigote (TRY) in-vitro screen; assay type: cell-based
Protocol: as §1
In-vitro studies on isolated bloodstream trypomastigotes were also used in the rational biochemical approaches towards the chemotherapy of T. brucei infections involving inhibitors of carbohydrate catabolism salicyl hydroxamic acid plus glycerol), of polyamine synthesis (methylgyoxal bis-guanylhydrazone and - DFMO), and of surface coat glycoprotein synthesis (Tunicamycin). In these studies, activity of the compounds are shown in-vitro and in-vivo, whereas the sensitivity of isolated bloodstream trypomastigotes to toxic oxygen radicals generated by naphthoquinones was not shown by the parasites in mice. The activity of the standard anti-trypanosomals-melarsoprol, pentamidine and suramin and tested compounds according to the present invention in in-vitro systems is shown in Table 3.
as §2

Compound	activity, procyclic TRY [1]	activity, EPI ([2]; T. cruzi strain MR)	activity, EPI ([2]; T. cruzi strain Sonya)	activity, EPI ([2]; T. cruzi strain Y)	Activity, PRO [3]	Activity, PRO [4]	activity, cultivated bloodstream TRY [5]	Activity, AM-PRO transform-ation [6]	Activity, AM in cell lines [7]	Activity, AM in cell lines [8]	Activity, mouse/ hamster models [9]	Activity, mouse/ hamster models [10]	Activity, AM-PRO transform-ation [11]	Activity, AM in mouse or human mos [13]	Activity, AM in mouse or human mos [14]	activity, mouse model ([15]; T. cruzi strain Sonya)	activity, mouse model ([15]; T. cruzi strain Y)	activity, intracellular AM ([16]; T. cruzi strain Sonya)	activity, intracellular AM ([16]; T. cruzi strain Y)	activity, TRY ([17]; T. cruzi strain Sonya)	also measured
OC[C@H]1O[C@@H](n2cnc3c(NCc4ccccc4)ncnc32)[C@H](O)[C@@H]1O [N6-Benzyladenosine, N^6-benzyladenosine]	+ +	+(Y,MR, Sonya)	+(Y,MR, Sonya)	+(Y,MR, Sonya)	+ +	+ +	+ +	+ +	+	-	-	-	+ +	+	+	+(Y)+(Sonya)	+(Y)+(Sonya)	+ (Y,Sonya)	+ (Y,Sonya)	+ (Y,Sonya)	activity, mouse model [12]: + +; activity, TRY ([17]; T. cruzi strain Y): + (Y,Sonya)
OC[C@H]1O[C@@H](n2cnc3c(NCc4ccco4)ncnc32)[C@H](O)[C@@H]1O [Furfuryladenosine]	+	++(Y,MR, Sonya)	++(Y,MR, Sonya)	++(Y,MR, Sonya)	+ +	+ +	+	+ +	+	-	+	+	+ +	+ +	+	+	++	+ (Y,Sonya)	+ (Y,Sonya)	+ (Y,Sonya)	activity, isolated bloodstream TRY [18]: + +; activity, TRY ([17]; T. cruzi strain Y): + (Y,Sonya)
CC(C)=CCNc1ncnc2c1ncn2[C@@H]1O[C@H](COP(=O)(O)O)[C@@H](O)[C@H]1O [N6-Isopentenyl Adenosine-5'monophosphate, N^6-(Δ^2-isopentenyl) adenosine-5'-monophosphate]	+ +	+(Y,MR, Sonya)	+(Y,MR, Sonya)	+(Y,MR, Sonya)	-	+ +	+	+	+	-	-	+	+ +	+ +	+	+	++	++(Y,Sonya)	++(Y,Sonya)	++(Y,Sonya)	activity, mouse model [12]: +; activity, isolated bloodstream TRY [18]: +; activity, TRY ([17]; T. cruzi strain Y): ++(Y,Sonya)
